The values that follow come from paper PMC11791359, “A select inhibitor of MORC2 encapsulated by chimeric membranecoated DNA nanocage target alleviation TNBC progression” (Materials Today Bio, 2025).

One series concerns 4T1 cells. Kind of series: CCK8 assay, 4T1. Format: cell-based, mouse. Particulars: CCK8, 4T1. The procedure:
CCK8 assay was performed to confirm the optimal killing concentration of Angoline on TNBC cells (MDA-MB-231, MDA-MB-468, and 4T1) in vitro. […] Thus, we further verified our speculation by detecting the cell viability and apoptosis rate of TNBC cells treated with Angoline and/or apoptosis inhibitor (Z-VAD-FMK). As expected, the toxic effect of Angoline on TNBC cells was reduced by Z-VAD-FMK (Fig. 2F). […] Also, YO-PRO-1 staining confirmed that the proportion of apoptotic cells was reduced when Z-VAD-FMK was added in the Angoline treated group (Fig. 2H). […] While, the detailed pro-apoptotic mechanism needs to be further elucidated.
(Formazan colour is commonly taken as a measure of viable cells.)

Series [1] has as its system phosphotyrosine STAT3 (p-STAT3). Kind of series: Western blot of p-STAT3 in TNBC cells. It counts as cell-based, human. The method, then:
Disruption of the IL6/STAT3 signaling pathway can induce cell cycle arrest and apoptosis, which may contribute to the tumor cell death observed in our study following Angoline treatment. Thus, WB analysis was performed to verify our hypothesis. […] These changes were also observed in tumor-bearing mice treated with Angoline (Fig. 3G). Thus, Angoline may also killing the TNBC cells by inhibiting the IL6/STAT3 signaling pathway.
TNBC cells were inoculated in 10-cm plates with 50–60% confluence and incubated for 24 hours. Then, after cleaning the cells with PBS three times, the total proteins of cells were harvested by adding the RIPA lysis buffer and 1% Phenylmethanesulfonyl Fluoride (PMSF) into the plates and scraping off the lysed cells. The total proteins were calculated by the BCA protein estimation assay and were isolated by 10% SDS‒PAGE. The protein was transferred onto the PVDF membrane and then blocked with 5% skim milk powder for 2 hours. The protein bands were probed with corresponding antibodies and incubated at 4 °C overnight. Then, the secondary antibodies were added and incubated 1 h at room temperature. Finally, the membranes were detected by the enhanced chemiluminescence detection system.
(A western blot detects proteins with antibodies after separation by electrophoresis.)

A further series deals with MCF-10A cells. It counts as cell-based, human. The method, then: Furthermore, the toxicity and side effects of PMD (Angoline) were evaluated through a comprehensive series of experiments. Firstly, normal breast epithelial cells (MCF-10A) were used to assess drug toxicity. […] Furthermore, we tested the immune-promoting cytokines, such as TNF-α, IL-1β and IL-6.

Take `COc1ccc2c(c1OC)C(OC)N(C)c1c-2ccc2cc3c(cc12)OCO3` (stereo not drawn) [Angoline]: the “inhibitory effect on cell viability” value in the series on 4T1 cells is recorded as “progressively increased with higher concentrations”. Also, the “level of p-STAT3” value in series [1] is “significantly reduced”. For the same compound, in the series with MCF-10A cells, the “toxicity toward MCF-10A cells” value was “neither Angoline nor PMD (Angoline) exhibited toxicity”.
